Experimental data as given in paper PMC9856672, “SGC-CAMKK2-1: A Chemical Probe for CAMKK2” (Cells, 2023).

What was measured:
[1] = biological target: T1, PCTK3 (Homo sapiens, UniProt Q07002); assay: KINOMEscan binding assay at 1 μM, PCTK3; details: Compound Concentration 1000 nM; read-out: Percent Control
T1 construct: purchased Eurofins DiscoverX KINOMEscan
From the text: (§1) Supplement cells-12-00287-s001.zip/File S2. KinomeScan data for the CAMKK2 probe and negative control.xlsx, sheet "SGC-CAMKK2-1N" | column: Percent Control

[2] = biological target: T2, DAPK1 (Homo sapiens, UniProt P53355); assay: KINOMEscan at 1 μM, DAPK1; type: binding; details: 1000 nM, read-out: Percent Control
T2 construct: purchased Eurofins DiscoverX KINOMEscan
From the text: as §1

[3] = biological target: T3, CIT (Homo sapiens, UniProt O14578); assay: KINOMEscan at 1 μM, CIT; type: binding; details: 1000 nM, read-out: Percent Control
T3 construct: purchased Eurofins DiscoverX KINOMEscan
From the text: as §1

[4] = biological target: T4, CDKL3 (Homo sapiens, UniProt Q8IVW4); assay: KINOMEscan at 1 μM, CDKL3; type: binding; details: 1000 nM, read-out: Percent Control
T4 construct: purchased Eurofins DiscoverX KINOMEscan
From the text: as §1

[5] = biological target: T5, BMX (Homo sapiens, UniProt P51813); assay: KINOMEscan at 1 μM, BMX; type: binding; details: 1000 nM, read-out: Percent Control
T5 construct: purchased Eurofins DiscoverX KINOMEscan
From the text: as §1

[6] = biological target: T6, EGFR(L858R) (Homo sapiens, UniProt P00533, L858R); assay: KINOMEscan binding assay at 1 μM, EGFR(L858R); details: Compound Concentration 1000 nM; read-out: Percent Control
T6 construct: purchased Eurofins DiscoverX KINOMEscan
From the text: as §1

[7] = biological target: T7, SGK (Homo sapiens, UniProt O00141); assay: KINOMEscan at 1 μM, SGK; type: binding; details: 1000 nM, read-out: Percent Control
T7 construct: purchased Eurofins DiscoverX KINOMEscan
From the text: as §1

[8] = biological target: T8, ERBB4 (Homo sapiens, UniProt Q15303); assay: KINOMEscan at 1 μM, ERBB4; type: binding; details: 1000 nM, read-out: Percent Control
T8 construct: purchased Eurofins DiscoverX KINOMEscan
From the text: as §1

[9] = biological target: T9, PDPK1 (Homo sapiens, UniProt O15530); assay: KINOMEscan binding assay at 1 μM, PDPK1; details: Compound Concentration 1000 nM; read-out: Percent Control
T9 construct: purchased Eurofins DiscoverX KINOMEscan
From the text: as §1

[10] = biological target: T10, HIPK3 (Homo sapiens, UniProt Q9H422); assay: KINOMEscan at 1 μM, HIPK3; type: binding; details: 1000 nM, read-out: Percent Control
T10 construct: purchased Eurofins DiscoverX KINOMEscan
From the text: as §1

[11] = biological target: T11, AURKB (Homo sapiens, UniProt Q96GD4); assay: KINOMEscan at 1 μM, AURKB; type: binding; details: 1000 nM, read-out: Percent Control
T11 construct: purchased Eurofins DiscoverX KINOMEscan
From the text: as §1

[12] = biological target: T12, NEK1 (Homo sapiens, UniProt Q96PY6); assay: KINOMEscan at 1 μM, NEK1; type: binding; details: 1000 nM, read-out: Percent Control
T12 construct: purchased Eurofins DiscoverX KINOMEscan
T12 sequence (Q96PY6 whole entry): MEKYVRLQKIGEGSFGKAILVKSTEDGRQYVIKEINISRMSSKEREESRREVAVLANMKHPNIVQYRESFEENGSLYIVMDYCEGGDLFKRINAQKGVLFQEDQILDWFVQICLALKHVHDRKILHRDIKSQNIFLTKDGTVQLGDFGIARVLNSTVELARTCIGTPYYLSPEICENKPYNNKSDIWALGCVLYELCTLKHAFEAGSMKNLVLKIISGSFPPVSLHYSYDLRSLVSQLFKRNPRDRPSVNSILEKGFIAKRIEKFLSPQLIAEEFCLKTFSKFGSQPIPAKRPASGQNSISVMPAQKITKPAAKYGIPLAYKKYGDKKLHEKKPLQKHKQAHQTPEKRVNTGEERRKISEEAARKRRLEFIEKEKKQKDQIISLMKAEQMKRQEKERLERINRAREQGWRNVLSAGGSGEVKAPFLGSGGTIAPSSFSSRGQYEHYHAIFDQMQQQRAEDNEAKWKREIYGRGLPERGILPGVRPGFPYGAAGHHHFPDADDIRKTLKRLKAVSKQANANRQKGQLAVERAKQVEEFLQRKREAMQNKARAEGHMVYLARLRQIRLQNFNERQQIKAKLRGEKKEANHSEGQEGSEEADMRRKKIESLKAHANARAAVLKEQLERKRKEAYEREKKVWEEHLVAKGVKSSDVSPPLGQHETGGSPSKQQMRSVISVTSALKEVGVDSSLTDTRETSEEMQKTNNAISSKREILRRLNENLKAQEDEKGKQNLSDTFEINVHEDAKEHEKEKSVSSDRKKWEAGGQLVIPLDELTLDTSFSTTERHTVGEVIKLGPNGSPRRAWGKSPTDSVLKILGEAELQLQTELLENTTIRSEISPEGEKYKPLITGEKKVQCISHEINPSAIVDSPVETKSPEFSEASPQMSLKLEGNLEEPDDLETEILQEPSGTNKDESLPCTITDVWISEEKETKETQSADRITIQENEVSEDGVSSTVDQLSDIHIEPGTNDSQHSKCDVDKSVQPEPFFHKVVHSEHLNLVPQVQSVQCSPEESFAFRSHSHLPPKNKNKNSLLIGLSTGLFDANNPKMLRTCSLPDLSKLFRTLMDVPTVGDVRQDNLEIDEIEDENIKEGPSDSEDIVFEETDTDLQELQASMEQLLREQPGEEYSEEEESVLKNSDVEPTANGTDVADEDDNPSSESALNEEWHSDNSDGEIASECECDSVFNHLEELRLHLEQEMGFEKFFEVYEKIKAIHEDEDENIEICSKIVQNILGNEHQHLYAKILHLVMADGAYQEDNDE
From the text: as §1

[13] = biological target: T13, PIK3CG (Homo sapiens, UniProt P48736); assay: KINOMEscan at 1 μM, PIK3CG; type: binding; details: 1000 nM, read-out: Percent Control
T13 construct: purchased Eurofins DiscoverX KINOMEscan
From the text: as §1

[14] = biological target: T14, NEK3 (Homo sapiens, UniProt P51956); assay: KINOMEscan at 1 μM, NEK3; type: binding; details: 1000 nM, read-out: Percent Control
T14 construct: purchased Eurofins DiscoverX KINOMEscan
T14 sequence (P51956 whole entry): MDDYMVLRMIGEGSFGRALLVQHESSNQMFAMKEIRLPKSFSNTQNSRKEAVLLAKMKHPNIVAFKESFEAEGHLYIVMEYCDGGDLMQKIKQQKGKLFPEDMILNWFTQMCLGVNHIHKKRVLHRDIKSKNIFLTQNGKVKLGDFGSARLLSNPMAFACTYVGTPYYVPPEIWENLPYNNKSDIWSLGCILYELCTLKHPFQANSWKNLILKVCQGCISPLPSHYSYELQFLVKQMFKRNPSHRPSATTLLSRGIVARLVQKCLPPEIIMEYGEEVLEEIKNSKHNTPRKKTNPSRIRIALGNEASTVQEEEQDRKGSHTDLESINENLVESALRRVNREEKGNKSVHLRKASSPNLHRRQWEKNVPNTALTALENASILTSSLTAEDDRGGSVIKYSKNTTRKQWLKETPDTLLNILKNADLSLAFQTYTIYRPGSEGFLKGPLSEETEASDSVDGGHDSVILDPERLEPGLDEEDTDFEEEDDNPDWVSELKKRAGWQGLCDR
From the text: as §1

[15] = biological target: T15, MYO3A (Homo sapiens, UniProt Q8NEV4); assay: KINOMEscan at 1 μM, MYO3A; type: binding; details: 1000 nM, read-out: Percent Control
T15 construct: purchased Eurofins DiscoverX KINOMEscan
T15 sequence (Q8NEV4 whole entry): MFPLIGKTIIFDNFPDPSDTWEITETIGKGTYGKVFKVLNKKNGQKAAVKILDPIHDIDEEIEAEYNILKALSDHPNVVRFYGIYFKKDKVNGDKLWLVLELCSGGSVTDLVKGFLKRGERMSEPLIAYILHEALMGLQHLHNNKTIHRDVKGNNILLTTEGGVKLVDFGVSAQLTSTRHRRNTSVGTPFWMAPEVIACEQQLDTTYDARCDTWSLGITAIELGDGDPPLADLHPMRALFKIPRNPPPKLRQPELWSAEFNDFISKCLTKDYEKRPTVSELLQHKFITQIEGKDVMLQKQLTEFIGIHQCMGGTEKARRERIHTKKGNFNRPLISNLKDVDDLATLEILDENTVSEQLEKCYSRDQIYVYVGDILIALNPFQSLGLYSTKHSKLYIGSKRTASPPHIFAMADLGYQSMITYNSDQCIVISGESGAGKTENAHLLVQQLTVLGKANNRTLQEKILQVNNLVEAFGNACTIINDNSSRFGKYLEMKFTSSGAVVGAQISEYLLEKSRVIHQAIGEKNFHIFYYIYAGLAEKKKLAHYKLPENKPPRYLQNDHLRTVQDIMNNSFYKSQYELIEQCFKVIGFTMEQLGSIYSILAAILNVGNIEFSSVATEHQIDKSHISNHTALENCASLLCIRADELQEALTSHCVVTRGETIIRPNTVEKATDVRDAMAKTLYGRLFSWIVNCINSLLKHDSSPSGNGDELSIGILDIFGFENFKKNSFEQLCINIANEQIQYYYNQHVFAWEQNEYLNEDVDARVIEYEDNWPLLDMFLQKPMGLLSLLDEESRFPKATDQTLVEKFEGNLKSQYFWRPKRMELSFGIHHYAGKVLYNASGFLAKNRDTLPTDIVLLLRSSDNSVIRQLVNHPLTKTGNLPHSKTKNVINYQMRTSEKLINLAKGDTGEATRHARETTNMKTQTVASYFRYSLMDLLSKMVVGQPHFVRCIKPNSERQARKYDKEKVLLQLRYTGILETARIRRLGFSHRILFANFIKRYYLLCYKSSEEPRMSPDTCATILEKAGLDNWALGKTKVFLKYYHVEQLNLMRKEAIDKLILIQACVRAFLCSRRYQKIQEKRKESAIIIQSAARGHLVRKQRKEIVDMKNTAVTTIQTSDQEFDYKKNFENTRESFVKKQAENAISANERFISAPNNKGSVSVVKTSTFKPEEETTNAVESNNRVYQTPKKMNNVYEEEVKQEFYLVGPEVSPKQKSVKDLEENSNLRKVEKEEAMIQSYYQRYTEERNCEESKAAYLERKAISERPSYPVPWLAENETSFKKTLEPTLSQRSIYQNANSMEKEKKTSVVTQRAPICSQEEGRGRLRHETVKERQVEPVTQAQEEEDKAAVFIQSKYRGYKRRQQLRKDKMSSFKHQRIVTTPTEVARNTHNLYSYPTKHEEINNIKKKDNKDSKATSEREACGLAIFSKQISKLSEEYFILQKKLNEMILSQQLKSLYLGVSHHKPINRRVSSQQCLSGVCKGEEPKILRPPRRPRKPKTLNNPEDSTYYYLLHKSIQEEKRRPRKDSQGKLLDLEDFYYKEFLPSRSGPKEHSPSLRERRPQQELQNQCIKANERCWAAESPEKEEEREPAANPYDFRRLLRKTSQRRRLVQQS
From the text: as §1

[16] = biological target: T16, GRK2 (Homo sapiens, UniProt P25098); assay: KINOMEscan 1 μM, GRK2; type: binding; details: 1000 nM; Entrez ADRBK1; read-out: Percent Control
T16 construct: purchased Eurofins DiscoverX KINOMEscan
From the text: (§2) Supplement cells-12-00287-s001.zip/File S2. KinomeScan data for the CAMKK2 probe and negative control.xlsx, sheet "SGC-CAMKK2-1" | column: Percent Control

[17] = biological target: T17, DDR1 (Homo sapiens, UniProt Q08345); assay: KINOMEscan 1 μM, DDR1; type: binding; details: 1000 nM; Entrez DDR1; read-out: Percent Control
T17 construct: purchased Eurofins DiscoverX KINOMEscan
From the text: as §2

[18] = biological target: T18, CDK4 (Homo sapiens, UniProt P11802); assay: KINOMEscan 1 μM, CDK4; type: binding; details: 1000 nM; Entrez CDK4; read-out: Percent Control
T18 construct: purchased Eurofins DiscoverX KINOMEscan
From the text: as §2

[19] = biological target: T19, DCAMKL1 (Homo sapiens, UniProt O15075); assay: KINOMEscan 1 μM, DCAMKL1; type: binding; details: 1000 nM; Entrez DCLK1; read-out: Percent Control
T19 construct: purchased Eurofins DiscoverX KINOMEscan
From the text: as §2

[20] = biological target: T20, CAMK2G (Homo sapiens, UniProt Q13555); assay: KINOMEscan 1 μM, CAMK2G; type: binding; details: 1000 nM; Entrez CAMK2G; read-out: Percent Control
T20 construct: purchased Eurofins DiscoverX KINOMEscan
From the text: as §2

[21] = biological target: T21, FGFR4 (Homo sapiens, UniProt P22455); assay: KINOMEscan 1 μM, FGFR4; type: binding; details: 1000 nM; Entrez FGFR4; read-out: Percent Control
T21 construct: purchased Eurofins DiscoverX KINOMEscan
From the text: as §2

[22] = biological target: T22, PAK3 (Homo sapiens, UniProt O75914); assay: DiscoverX KINOMEscan binding assay at 1 μM, PAK3; details: Compound Concentration 1000 nM, read-out: Percent Control
T22 construct: purchased Eurofins DiscoverX KINOMEscan
From the text: as §2

[23] = biological target: T23, BMPR2 (Homo sapiens, UniProt Q13873); assay: KINOMEscan 1 μM, BMPR2; type: binding; details: 1000 nM; Entrez BMPR2; read-out: Percent Control
T23 construct: purchased Eurofins DiscoverX KINOMEscan
From the text: as §2

[24] = biological target: T24, BRAF (Homo sapiens, UniProt P15056); assay: KINOMEscan 1 μM, BRAF; type: binding; details: 1000 nM; Entrez BRAF; read-out: Percent Control
T24 construct: purchased Eurofins DiscoverX KINOMEscan
From the text: as §2

[25] = biological target: T25, CSNK2A2 (Homo sapiens, UniProt P19784); assay: KINOMEscan 1 μM, CSNK2A2; type: binding; details: 1000 nM; Entrez CSNK2A2; read-out: Percent Control
T25 construct: purchased Eurofins DiscoverX KINOMEscan
From the text: as §2

[26] = biological target: T26, NEK9 (Homo sapiens, UniProt Q8TD19); assay: KINOMEscan 1 μM, NEK9; type: binding; details: 1000 nM; Entrez NEK9; read-out: Percent Control
T26 construct: purchased Eurofins DiscoverX KINOMEscan
T26 sequence (Q8TD19 whole entry): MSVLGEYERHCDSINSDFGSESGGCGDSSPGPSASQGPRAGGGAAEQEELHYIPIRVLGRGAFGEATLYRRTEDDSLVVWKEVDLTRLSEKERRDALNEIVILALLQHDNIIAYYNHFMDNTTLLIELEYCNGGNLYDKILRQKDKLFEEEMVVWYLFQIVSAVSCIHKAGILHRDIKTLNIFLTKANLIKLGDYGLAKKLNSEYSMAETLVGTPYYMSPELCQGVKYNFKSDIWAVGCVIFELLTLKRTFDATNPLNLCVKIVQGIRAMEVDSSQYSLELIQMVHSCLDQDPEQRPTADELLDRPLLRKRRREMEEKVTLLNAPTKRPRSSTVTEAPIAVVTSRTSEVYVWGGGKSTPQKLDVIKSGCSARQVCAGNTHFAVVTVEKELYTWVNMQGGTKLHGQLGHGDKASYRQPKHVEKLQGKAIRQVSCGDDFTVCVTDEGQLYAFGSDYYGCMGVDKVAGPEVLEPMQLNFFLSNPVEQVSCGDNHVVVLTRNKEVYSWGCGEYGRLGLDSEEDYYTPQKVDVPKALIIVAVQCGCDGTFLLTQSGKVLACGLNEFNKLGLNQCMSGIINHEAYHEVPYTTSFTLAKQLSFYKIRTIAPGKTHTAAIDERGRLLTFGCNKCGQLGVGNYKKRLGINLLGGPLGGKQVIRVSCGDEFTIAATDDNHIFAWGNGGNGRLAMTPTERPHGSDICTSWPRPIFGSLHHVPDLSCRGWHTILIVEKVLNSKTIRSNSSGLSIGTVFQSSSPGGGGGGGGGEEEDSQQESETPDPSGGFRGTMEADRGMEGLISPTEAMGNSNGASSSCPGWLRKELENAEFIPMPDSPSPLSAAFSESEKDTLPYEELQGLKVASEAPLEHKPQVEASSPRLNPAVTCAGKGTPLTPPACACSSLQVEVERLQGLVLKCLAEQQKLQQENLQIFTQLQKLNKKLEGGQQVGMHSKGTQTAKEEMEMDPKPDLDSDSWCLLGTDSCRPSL
From the text: as §2

[27] = biological target: T27, GSK3B (Homo sapiens, UniProt P49841); assay: KINOMEscan 1 μM, GSK3B; type: binding; details: 1000 nM; Entrez GSK3B; read-out: Percent Control
T27 construct: purchased Eurofins DiscoverX KINOMEscan
T27 sequence (P49841 whole entry): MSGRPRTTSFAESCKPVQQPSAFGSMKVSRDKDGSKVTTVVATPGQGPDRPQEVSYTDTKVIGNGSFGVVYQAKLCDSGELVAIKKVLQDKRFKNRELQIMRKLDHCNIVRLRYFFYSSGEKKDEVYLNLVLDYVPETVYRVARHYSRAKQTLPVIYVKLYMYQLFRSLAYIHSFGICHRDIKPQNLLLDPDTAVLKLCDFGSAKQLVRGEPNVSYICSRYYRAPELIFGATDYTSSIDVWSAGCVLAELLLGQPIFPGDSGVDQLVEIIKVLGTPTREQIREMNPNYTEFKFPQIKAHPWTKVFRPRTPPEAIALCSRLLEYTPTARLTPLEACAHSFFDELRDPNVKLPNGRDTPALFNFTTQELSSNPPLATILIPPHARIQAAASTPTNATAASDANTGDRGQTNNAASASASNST
From the text: as §2

[28] = biological target: T28, DLK (Homo sapiens, UniProt Q12852); assay: KINOMEscan 1 μM, DLK; type: binding; details: 1000 nM; Entrez MAP3K12; read-out: Percent Control
T28 construct: purchased Eurofins DiscoverX KINOMEscan
From the text: as §2

[29] = biological target: T29, IKK-alpha (Homo sapiens, UniProt O15111); assay: KINOMEscan 1 μM, IKK-alpha; type: binding; details: 1000 nM; Entrez CHUK; read-out: Percent Control
T29 construct: purchased Eurofins DiscoverX KINOMEscan
From the text: as §2

[30] = biological target: T30, MAP3K15 (Homo sapiens, UniProt Q6ZN16); assay: KINOMEscan 1 μM, MAP3K15; type: binding; details: 1000 nM; Entrez MAP3K15; read-out: Percent Control
T30 construct: purchased Eurofins DiscoverX KINOMEscan
From the text: as §2

[31] = biological target: T31, CDK3 (Homo sapiens, UniProt Q00526); assay: KINOMEscan 1 μM, CDK3; type: binding; details: 1000 nM; Entrez CDK3; read-out: Percent Control
T31 construct: purchased Eurofins DiscoverX KINOMEscan
T31 sequence (Q00526 whole entry): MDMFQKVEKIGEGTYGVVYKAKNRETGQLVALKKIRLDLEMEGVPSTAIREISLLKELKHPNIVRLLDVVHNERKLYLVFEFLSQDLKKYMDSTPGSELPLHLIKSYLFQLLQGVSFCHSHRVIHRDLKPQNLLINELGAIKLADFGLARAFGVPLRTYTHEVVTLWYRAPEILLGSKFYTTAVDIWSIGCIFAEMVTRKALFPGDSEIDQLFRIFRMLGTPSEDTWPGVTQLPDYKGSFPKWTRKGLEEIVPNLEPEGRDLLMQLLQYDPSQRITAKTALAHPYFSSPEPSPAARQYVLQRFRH
From the text: as §2

[32] = biological target: T15, MYO3A; assay: KINOMEscan 1 μM, MYO3A; type: binding; details: 1000 nM; Entrez MYO3A; read-out: Percent Control
From the text: as §2

[33] = biological target: T32, LATS2 (Homo sapiens, UniProt Q9NRM7); assay: KINOMEscan 1 μM, LATS2; type: binding; details: 1000 nM; Entrez LATS2; read-out: Percent Control
T32 construct: purchased Eurofins DiscoverX KINOMEscan
From the text: as §2

[34] = biological target: T33, PIP5K1C (Homo sapiens, UniProt O60331); assay: KINOMEscan 1 μM, PIP5K1C; type: binding; details: 1000 nM; Entrez PIP5K1C; read-out: Percent Control
T33 construct: purchased Eurofins DiscoverX KINOMEscan
From the text: as §2

Compound: O=C(O)c1ccc(-c2coc3ncc(-c4ccccc4)cc23)cc1Cl [SGC-CAMKK2-1N (UNC-YL-83)]
- remaining binding at 1 µM [1]: 100%
- remaining binding at 1 µM [2]: 100%
- remaining binding at 1 µM [3]: 87%
- remaining binding at 1 µM [4]: 63%
- remaining binding at 1 µM [5]: 77%
- remaining binding at 1 µM [6]: 100%
- remaining binding at 1 µM [7]: 79%
- remaining binding at 1 µM [8]: 83%
- remaining binding at 1 µM [9]: 100%
- remaining binding at 1 µM [10]: 40%
- remaining binding at 1 µM [11]: 62%
- remaining binding at 1 µM [12]: 71%
- remaining binding at 1 µM [13]: 66%
- remaining binding at 1 µM [14]: 71%
- remaining binding at 1 µM [15]: 72%

Compound: Cc1cccc(-c2cnc3occ(-c4ccc(C(=O)O)c(C5CCCC5)c4)c3c2)c1 [SGC-CAMKK2-1 (YL-36)]
- remaining binding at 1 µM [16]: 100%
- remaining binding at 1 µM [17]: 98%
- remaining binding at 1 µM [18]: 100%
- remaining binding at 1 µM [19]: 100%
- remaining binding at 1 µM [20]: 100%
- remaining binding at 1 µM [21]: 98%
- remaining binding at 1 µM [22]: 100%
- remaining binding at 1 µM [23]: 100%
- remaining binding at 1 µM [24]: 100%
- remaining binding at 1 µM [25]: 100%
- remaining binding at 1 µM [26]: 100%
- remaining binding at 1 µM [27]: 100%
- remaining binding at 1 µM [28]: 100%
- remaining binding at 1 µM [29]: 100%
- remaining binding at 1 µM [30]: 84%
- remaining binding at 1 µM [31]: 59%
- remaining binding at 1 µM [32]: 100%
- remaining binding at 1 µM [33]: 72%
- remaining binding at 1 µM [34]: 99%
